The assay concerns the target telomerase enzyme (Homo sapiens, UniProt O14746). Briefly: Flash Plate-based telomerase activity assay. In kind it is biochemical. The conditions noted are these: two hours of incubation at 37°, biotinylated oligo primer, radioactive labeled probe. On the procedure:
The telomerase activity of the compounds has been evaluated using a Flash Plate-based assay.
Briefly the assay mixture is constituted of:
telomerase enzyme diluted in a buffer, the composition of which has been selected to maintain the enzyme activity stable along the duration of the assay.
dNTPs, deoxynucleotides 5′-triphosphate.
biotinylated oligo as primer.
increasing concentrations of test compounds/positive control.
After two hours of incubation at 37° degrees the telomeric repeats added by telomerase are evaluated by hybridization in solution with a 3′-radioactive labeled short oligonucleotide probe.
The extent of hybridization is then quantitated by transferring the reaction mixture in a streptavidin-coated flash plate, where the binding between biotin and streptavidin occurs.
The telomerase activity is proportional to the radioactivity measured and the inhibitory activity of the compounds is evaluated as IC50 using the Sigma Plot fit program.
With the above-described method IC50 values of the compounds of the present invention were determined.

This passage reports IC50 results from patent US20020160983A1, “Substituted benzopyranones as telomerase inhibitors” (priority 2001, published 2002).

Structures are written as SMILES.

By IC50 is commonly meant the concentration that inhibits the measured activity by half.

telomerase enzyme, sequence (O14746 whole entry): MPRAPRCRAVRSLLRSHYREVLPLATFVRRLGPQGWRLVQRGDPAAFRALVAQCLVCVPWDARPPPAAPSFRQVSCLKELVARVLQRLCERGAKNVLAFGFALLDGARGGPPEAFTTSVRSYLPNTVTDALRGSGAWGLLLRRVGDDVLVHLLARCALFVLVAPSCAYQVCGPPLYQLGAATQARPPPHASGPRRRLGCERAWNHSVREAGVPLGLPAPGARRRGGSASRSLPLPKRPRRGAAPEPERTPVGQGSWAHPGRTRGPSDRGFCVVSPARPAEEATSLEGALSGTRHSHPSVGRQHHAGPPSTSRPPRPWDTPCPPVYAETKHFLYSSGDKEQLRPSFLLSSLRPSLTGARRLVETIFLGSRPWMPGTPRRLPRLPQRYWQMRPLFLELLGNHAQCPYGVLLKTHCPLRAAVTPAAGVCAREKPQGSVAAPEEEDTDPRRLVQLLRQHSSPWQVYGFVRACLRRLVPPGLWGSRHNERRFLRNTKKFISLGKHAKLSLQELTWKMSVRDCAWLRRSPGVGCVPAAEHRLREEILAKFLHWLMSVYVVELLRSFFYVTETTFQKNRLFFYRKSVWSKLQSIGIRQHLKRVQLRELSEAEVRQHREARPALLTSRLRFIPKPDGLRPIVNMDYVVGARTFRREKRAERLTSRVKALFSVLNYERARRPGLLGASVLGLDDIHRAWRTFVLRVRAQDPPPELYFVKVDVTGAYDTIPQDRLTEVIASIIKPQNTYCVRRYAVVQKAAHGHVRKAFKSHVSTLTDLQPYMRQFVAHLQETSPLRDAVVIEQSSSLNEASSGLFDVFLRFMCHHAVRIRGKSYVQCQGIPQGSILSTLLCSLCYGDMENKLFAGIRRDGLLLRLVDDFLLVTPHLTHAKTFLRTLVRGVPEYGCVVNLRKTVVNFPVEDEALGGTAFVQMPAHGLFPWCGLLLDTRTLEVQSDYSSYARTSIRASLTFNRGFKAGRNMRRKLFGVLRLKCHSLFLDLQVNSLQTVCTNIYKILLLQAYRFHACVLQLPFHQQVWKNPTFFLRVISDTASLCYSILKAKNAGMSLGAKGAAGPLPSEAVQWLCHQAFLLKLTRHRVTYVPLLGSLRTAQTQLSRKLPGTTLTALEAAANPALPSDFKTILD

As to `Nc1ccc(-c2cc(=O)c3ccc(O)c(O)c3o2)cc1N` [Compound 52, 2-(3,4-diaminophenyl)-7,8-dihydroxy-4H-chromen-4-one], the IC50 was 3.6 µM. The value for `COc1ccc2c(=O)cc(-c3ccc(NC(C)=O)c(NC(C)=O)c3)oc2c1OC` [Compound 58, N-[2-(acetylamino)-4-(7,8-dimethoxy-4-oxo-4H-chromen-2-yl)phenyl]acetamide] was greater than 40 µM. Consider `N#Cc1c(-c2ccc(O)c(O)c2)oc2c(O)c(O)ccc2c1=O` [Compound 39, 3-cyano-2-(3,4-dihydroxyphenyl)-7,8-dihydroxy-4H-chromen-4-one], for which the IC50 came to 0.13 µM. For the compound `COc1ccc2c(=O)cc(-c3ccc4[nH]c(=O)[nH]c4c3)oc2c1OC` [Compound 67, 5-(7,8-dimethoxy-4-oxo-4H-chromen-2-yl)-1,3-dihydro-2H-benzimidazol-2-one], the IC50 was 19 µM. The value for `CC(=O)Oc1ccc(-c2cc(=O)c3ccc(O)c(O)c3o2)cc1OC(C)=O` [Compound 90, 2-(3,4-diacetoxyphenyl)-7,8-dihydroxy-4H-chromen-4-one] was 0.64 µM.

Turning to `COc1ccc2c(=O)cc(-c3ccc4[nH]cnc4c3)oc2c1OC` [Compound 61, 2-(1H-benzimidazol-5-yl)-7,8-dimethoxy-4H-chromen-4-one], the IC50 came to 2.2 µM. Regarding `COc1ccc2c(=O)cc(-c3ccc(N)c(N)c3)oc2c1OC` [Compound 51, 2-(3,4-diaminophenyl)-7,8-dimethoxy-4H-chromen-4-one], the IC50 came out at 7.4 µM. As to `COc1ccc2c(=O)cc(-c3ccc(O)c(O)c3)oc2c1O` [Compound 78, 8-hydroxy-7-methoxy-2-(3,4-dihydroxyphenyl)-4H-chromen-4-one], the IC50 was 7.8 µM. The value for `O=c1cc(-c2ccccc2)oc2c(O)c(O)ccc12` [Compound 1, 7,8-dihydroxy-2-phenyl-4H-chromen-4-one] was 33 µM; that for `O=c1c(Cl)c(-c2ccc(O)c(O)c2)oc2c(O)c(O)ccc12` [Compound 37, 3-chloro-2-(3,4-dihydroxyphenyl)-7,8-dihydroxy-4H-chromen-4-one] was 0.8 µM.

As for `O=c1cc(-c2cccc(O)c2)oc2c(O)c(O)ccc12` [Compound 5, 7,8-dihydroxy-2-(3-hydroxyphenyl)-4H-chromen-4-one], the IC50 amounted to 34 µM. The value for `O=c1cc(-c2cccc(Cl)c2)oc2c(O)c(O)ccc12` [Compound 45, 2-(3-chlorophenyl)-7,8-dihydroxy-4H-chromen-4-one] was 30 µM; that for `O=c1cc(-c2ccc(O)cc2)oc2c(O)c(O)ccc12` [Compound 2, 7,8-dihydroxy-2-(4-hydroxyphenyl)-4H-chromen-4-one] was 3 µM; that for `COc1ccc(-c2cc(=O)c3ccc(OC)c(OC)c3o2)cc1OC` [Compound 24, 7,8-dimethoxy-2-(3,4-dimethoxyphenyl)-4H-chromen-4-one] was greater than 40 µM. Take `COc1ccc(-c2cc(=O)c3ccc(O)c(O)c3o2)cc1O` [Compound 79, 7,8-dihydroxy-2-(3-hydroxy-4-methoxyphenyl)-4H-chromen-4-one]: the IC50 amounted to 11.7 µM. With `O=c1cc(-c2ccc(Cl)c(Cl)c2)oc2c(O)c(O)ccc12` [Compound 46, 2-(3,4-dichlorophenyl) -7,8-dihydroxy-4H-chromen-4-one], the IC50 was 14.3 µM. On to `COc1ccc(-c2oc3c(OC)c(OC)ccc3c(=O)c2Cl)cc1OC` [Compound 38, 3-chloro-2-(3,4-dimethoxyphenyl)-7,8-dimethoxy-4H-chromen-4-one], for which the IC50 was greater than 40 µM. Next, `O=c1cc(-c2ccccc2O)oc2c(O)c(O)ccc12` [Compound 4, 7,8-dihydroxy-2-(2-hydroxyphenyl)-4H-chromen-4-one]: 25.3 µM. `O=c1c(F)c(-c2ccc(O)c(O)c2)oc2c(O)c(O)ccc12` [Compound 41, 3-fluoro-2-(3,4-dihydroxyphenyl)-7,8-dihydroxy-4H-chromen-4-one]: the IC50 was 0.6 µM. For `O=c1cc(-c2ccc(O)c(O)c2)oc2c(O)c(O)ccc12` [Compound 3, 2-(3,4-dihydroxyphenyl)-7,8-dihydroxy-4H-chromen-4-one], the IC50 was determined as 0.3 µM.

With `COc1ccc(-c2cc(=O)c3ccc(O)c(O)c3o2)cc1OC` [Compound 7, 7,8-dihydroxy-2-(3,4-dimethoxyphenyl)-4H-chromen-4-one], the IC50 worked out at 12 µM. Regarding `O=c1cc(-c2ccc(O)c(O)c2)oc2c(O)c(O)c(Cl)cc12` [Compound 49, 6-chloro-2-(3,4-dihydroxyphenyl)-7,8-dihydroxy-4H-chromen-4-one], the IC50 was found to be 0.34 µM.

`COc1ccc2c(=O)cc(-c3ccc4[nH]nnc4c3)oc2c1OC` [Compound 65, 2-(1H-1,2,3-benzotriazol-5-yl)-7,8-dimethoxy-4H-chromen-4-one]: the half-inhibitory concentration (IC50) is greater than 40 µM. With `COc1ccc(-c2cc(=O)c3ccc(OC)c(OC)c3o2)cc1O` [Compound 87, 7,8-dimethoxy-2-(3-hydroxy-4-methoxyphenyl)-4H-chromen-4-one], the IC50 stood at 8.7 µM. As for `CC(=O)Oc1ccc(-c2cc(=O)c3ccc(OC(C)=O)c(OC(C)=O)c3o2)cc1OC(C)=O` [Compound 14, 2-(3,4-diacetoxyphenyl)-7,8-diacetoxy—4H-chromen-4-one], the IC50 is 15 µM.

Regarding `COc1ccc(-c2cc(=O)c3cc(Cl)c(OC)c(OC)c3o2)cc1OC` [Compound 50, 6-chloro-2-(3,4-dimethoxyphenyl)-7,8-dimethoxy-4H-chromen-4-one], the IC50 came to 5.4 µM.
